Measurements: a melting point compilation (Tetko et al.; mined from patent text by program, amines drawn as free bases though some values may be those of a salt)

Work on COc1ccc(C(=O)Nc2c(Cl)cncc2Cl)cc1SC1CCCC1 yielded a melting point of 198 °C. Work on O=C(O)CCCCCCCCCCCNC(=O)CCCCCCCCC/C=C/c1ccccc1 yielded a melting point of 119 to 121 °C. Work on C#CC[C@@H](NC(=O)OC(C)(C)C)c1nc2cccnc2c(=O)n1Nc1ccccc1 yielded a melting point of 108 to 110 °C. O=C(NS(=O)(=O)NCCc1cccs1)OCc1ccccc1 showed a melting point of 129 to 131 °C. Work on Cc1ccc2nc(C3(c4ccc(S(N)(=O)=O)cc4)C=C(C(F)F)NN3)sc2c1 (centres undefined) yielded a melting point of 235 to 236 °C. Work on Cc1ccc2c3c(ccc2n1)OCC(CN1CCC2(CC1)C(=O)NCN2c1ccccc1)O3 (centres undefined) yielded a melting point of 199 to 201 °C. COCCN(C)c1nccc(Oc2ccc(NC(=O)c3cc(F)cc(N4CCOCC4)c3)c3ccccc23)n1 gave a melting point of 96 to 98 °C. For CCCc1cc(Br)c2oc(Cc3ccc(OC)cc3)c(C)c2c1O, the melting point was 110 to 112 °C. In the case of N#Cc1cnn2c1N(C(=O)CN1CCN(C(=O)OCc3ccccc3)CC1)CC=C2c1cccc(C(F)(F)F)c1, the melting point is reported as 113 to 115 °C. Cc1ccccc1C(=O)NC(NC(=O)Nc1cccnc1)C(Cl)(Cl)Cl (centres undefined) gave a melting point of 182 to 184 °C. Molecule CC(=O)c1c(-c2ccncc2)[nH]c(-c2ccncc2)c1CO has a melting point of 205 to 207 °C. In the case of CCN(CC)CCCNC(=O)Cn1ncc(-c2ccc(N)cc2)c1-c1ccccc1, the melting point is reported as 75 to 76 °C. In the case of COc1cc(-c2cc(-c3ccccn3)no2)cc2oc(=O)c(C)c(C)c12, the melting point is reported as 193 °C. Molecule COc1cc(OC)nc(N(C(=S)Oc2ccccc2)C(=S)Oc2ccccc2)n1 has a melting point of 127 to 128 °C. With N#CCCNC(=S)C1=CC(CF)(CF)Oc2ccc(C(F)(F)F)cc21 the melting point was 105 to 106 °C. For Nc1cc2c(Nc3ccc4c(cnn4Cc4cccc(F)c4)c3)ncnc2cn1, the melting point was 241 to 244 °C. Molecule CC1=NN=C(c2ccc(NC(=O)CN)cc2)c2cc3c(cc2C1)OCO3 has a melting point of 223 to 225 °C. CC1Cc2ccccc2N1N (centres undefined) showed a melting point of 37 to 38 °C. In the case of c1cc(Cn2ncc3c(N4CCNCC4)ncnc32)ccn1, the melting point is reported as 121 °C. CCCCCCCCCCCCc1cc(C(C(=O)Nc2c(OC)cc(OC)cc2OC)c2ccccc2)on1 (centres undefined) showed a melting point of 88 to 97 °C. CN(C)C(=O)c1nc(-c2cccc3ccccc23)no1 gave a melting point of 109 to 110 °C. In the case of O=C1CCCN1C(=O)Oc1ccccc1[N+](=O)[O-], the melting point is reported as 135 to 136 °C. With O=C(CC1CCCC1=O)c1ccc(Br)cc1 (centres undefined) the melting point was 59 to 61 °C. Work on CCOC(=O)C1=C(c2cccc(Cl)c2Cl)N(C(=O)OCC)C(=O)NC1C (centres undefined) yielded a melting point of 140 to 141 °C. Molecule NC(=S)N1CCC(=O)C(C(c2ccccc2)c2ccccc2)C1 (centres undefined) has a melting point of 107 °C. CC(C)NC(COc1ccccc1C(=O)Nc1cccc2[nH]ccc12)NC(C)C showed a melting point of 180 °C. For Cc1nc(NC(=N)N)sc1C(=O)N1CC[C@@H](COCC(=O)O)C1, the melting point was 136 °C. COc1ccc2c(c1)S(=O)c1nccnc1N2 (centres undefined) showed a melting point of 240 to 241 °C. NC(=O)C(O)c1cc(F)cc2cccnc12 (centres undefined) gave a melting point of 169 to 171 °C. Work on Nc1ccccc1C(=O)NCCN1CCC(Nc2nc3ccccc3n2Cc2ccc(F)cc2)CC1 yielded a melting point of 172 °C. Work on COc1c(C)cc(C)cc1CNC(=O)CCl yielded a melting point of 124 °C. Work on COc1ccc2c(c1)CC1(CCC(=O)CC1)C21OCCO1 yielded a melting point of 142 to 144 °C. With Cc1ccc(S(=O)(=O)OCC2CN(C(=O)Oc3ccccc3)CCO2)cc1 (centres undefined) the melting point was 101 to 103 °C. Work on CCCCN(CCCC)CCCOc1ccc(-c2cn3cccc(C)c3n2)cc1OC yielded a melting point of 127 to 130 °C. Molecule Cc1cc2c3c(c1)c1c(n3C(c3ccccc3)CO2)CCCC1=O (centres undefined) has a melting point of 171 °C. With O=C1NC(=O)c2c1c(-c1ccccc1Cl)cc1c2c(Br)cn1CCCN1CCCC1 the melting point was 158 to 161 °C. CCCc1c(CSc2ncccc2O)ccc(C(C)=O)c1O gave a melting point of 126 °C. In the case of COc1c(C2CCN(CCCCNC(=O)c3sc(-c4ccc(C(F)(F)F)cc4)nc3CO)CC2)ccc2c1CCCC2, the melting point is reported as 179 to 180 °C. O=c1c(-c2nnn[nH]2)coc2ccccc12 gave a melting point of 284 to 285 °C. CC(=O)COc1ccc(-c2ccc(=O)n(Cc3ccc(Cl)cc3F)c2)cc1 gave a melting point of 127 °C. In the case of CCOC(=O)c1cn(CC)c2cc(N3CCN(C)CC3)ncc2c1=O, the melting point is reported as 176 to 177 °C. For O=C(CCCCCN1CCN(c2ccccc2)CC1)Nc1ccc(O)cc1, the melting point was 157 to 159 °C. Molecule CCOC(=O)c1ccc(OC(=O)CCCCC(=O)Oc2ccc(C(=O)OCC)cc2)cc1 has a melting point of 82 to 83 °C. CC(CC(C)(C)O)Nc1ncc2cc(Oc3ccc(F)cc3F)c(=O)n(C)c2n1 (centres undefined) gave a melting point of 159 to 161 °C. CCOC(=O)C(C)(C)c1ccc2c(c1)N(CC(C)N(C)C)c1ccccc1S2 (centres undefined) gave a melting point of 107 to 110 °C. With CCOC(=O)c1cc2cccc([N+](=O)[O-])c2n1COC the melting point was 62 to 63 °C. With O=C1Nc2ccc(-c3cccc(Cl)c3)cc2C2(CCCC2)O1 the melting point was 140 to 145 °C. Work on O=C(/C=C/c1ccc2ccccc2c1)N1CCN(Cc2cccc(CN3CCN(C(=O)/C=C/c4ccc5ccccc5c4)CC3)n2)CC1 yielded a melting point of 200 to 202 °C. CC(C)(C)c1cc(I)c(O)c(C=O)c1 showed a melting point of 77 °C. Work on COC(=O)C1Cc2c([nH]c3ccccc23)C(c2ccc(O)c(OC)c2)N1 (centres undefined) yielded a melting point of 195 °C. Work on C[C@H](N=Cc1ccc(OCc2ccccc2F)cc1)C(N)=O yielded a melting point of 121 °C. With CCOP(=O)(O)Cc1nc2nc[nH]c2c2nc(-c3ccc(C(C)(C)C)cc3)nn12 the melting point was 254 to 256 °C. Work on CN(C)S(=O)(=O)c1ccc(C(=O)O)c(C(F)(F)F)c1 yielded a melting point of 189 °C. CCC(Nc1cc(C)nc(Oc2c(C)cc(Cl)cc2C)c1C(=O)OC)C(C)O (centres undefined) gave a melting point of 133 to 135 °C. In the case of O=C(CCCCOc1ccc(OCc2ccccc2)cc1)C(F)(F)F, the melting point is reported as 95.5 to 96 °C. Work on CC(=O)Nc1ccc2cccc(Oc3cc(-c4ccc(C(F)(F)F)cc4)ncn3)c2n1 yielded a melting point of 204 to 206 °C. Fc1ccc(CBr)c(I)c1 gave a melting point of 71 to 73 °C. Molecule O=C(O)c1cc2cc(Cl)ccc2[nH]c1=O has a melting point greater than 310 °C. Cc1cc(CCCCCOc2ccc(C3=NCCO3)cc2C=CBr)on1 gave a melting point of 94 to 96 °C. Work on CC(C)Oc1cccc(-c2nn(C(C)c3oc4ccccc4c(=O)c3-c3cccc(F)c3)c3ncnc(N)c23)c1 (centres undefined) yielded a melting point of 153 to 157 °C. With CCOP(=O)(OCC)Oc1c(C2CCCCN2CCCCNC(=O)c2ccc(NC(=O)c3ccc(Cl)cc3)cc2)ccc2c1CCCC2 (centres undefined) the melting point was 200 °C. Work on COCOCc1cccc2c(=O)c(C(=O)O)c(-c3ccccc3)oc12 yielded a melting point of 142 to 143 °C. Molecule O=C(Nc1c([N+](=O)[O-])cc(C(F)(F)F)cc1[N+](=O)[O-])C(F)(F)F has a melting point of 222 to 224 °C. In the case of CN(C)C1(c2ccccc2)CCC(O)(c2cc3ccccc3n2S(=O)(=O)c2ccccc2)CC1 (centres undefined), the melting point is reported as 173 to 176 °C. Molecule COc1cccc(-c2nc(-c3ccc(S(C)=O)cc3)[nH]c2-c2ccncc2)c1 (centres undefined) has a melting point of 167 to 168 °C. Molecule CN(C)C(=O)NCc1cccc2c1C(=O)N(C1CCC(=O)NC1=O)C2=O (centres undefined) has a melting point of 143 to 145 °C. Molecule CC(N)=CC(=O)OCC1CC1 has a melting point of 55 to 58 °C. Work on O=C(Cc1ccc(CC(=O)Oc2cc(O)cc(O)c2)cc1)Oc1cc(O)cc(O)c1 yielded a melting point of 220 to 225 °C. CN(C)c1cc(-c2nnn(Cc3ccc(C(=O)O)cc3)n2)ccc1OC(=O)C(C)(C)C gave a melting point of 177 to 178 °C. With N=C(OCC1CC1)N1Cc2ccccc2-c2ccccc2C1 the melting point was 80 to 83 °C. For CCCN(CCC)C(=O)n1cc(C)c2c1CC1(c3cccc(O)c3)CCN(CC)CC1C2 (centres undefined), the melting point was 151 to 153 °C. COc1ccc(-c2c(CBr)c3ccc(OC)cc3oc2=O)c(OC(C)=O)c1 showed a melting point of 132 to 133 °C. Work on CC(=O)SCSc1cn(C(c2ccccc2)(c2ccccc2)c2ccccc2)nn1 yielded a melting point of 115 to 116 °C. Work on CCn1cc(CN(C(=O)C2CCCc3cc(O)ccc32)c2ccc(C(C)C)cc2)cn1 (centres undefined) yielded a melting point of 146 to 147 °C. Work on O=C(O)C(c1ccc(Cl)cc1)c1ccc(-n2ncc(=O)[nH]c2=O)cc1Cl (centres undefined) yielded a melting point of 196 °C. COC(=O)c1c(Sc2nc(OC)cc(OC)n2)cccc1C(C)=O gave a melting point of 149 to 151 °C. Molecule CN1C(=O)Cc2cc(F)ccc21 has a melting point of 128 to 130 °C. O=C(O)CC(Cc1ccccc1)NC(=O)C1Cc2ccccc2N1S(=O)(=O)c1ccc(-c2ccc(F)cc2)cc1 (centres undefined) gave a melting point of 87 to 90 °C. Molecule N#CC=C1CCN(c2ccc(N3C[C@H](CNC(=O)CI)OC3=O)cc2F)CC1 has a melting point of 178 to 180 °C. O=C(NCC1Cc2ccc3c(c2O1)CCC3)OCc1ccccc1 (centres undefined) gave a melting point of 99 to 101 °C. CN1CCN2c3ccccc3Cn3c(c(C=O)c4ccccc43)C2C1 (centres undefined) showed a melting point of 260 to 266 °C. In the case of CN(C)Cc1ccc(-c2ccc(C(=O)c3ccc(Br)cc3)c(O)c2)cc1, the melting point is reported as 85 to 88 °C. COc1ccc2[nH]c3cc(-c4ccccc4C#N)c4c(c3c2c1)C(=O)NC4=O gave a melting point of 348 to 350 °C. Work on CCCCCCC1C(=O)NC(C(=O)SCc2ccccc2)(C(O)C2C=CCCC2)C1(C)O (centres undefined) yielded a melting point of 138 °C. CCOCc1nc2c(N)nc3ccccc3c2n1CC1(NC(=O)OC(C)(C)C)CCCCC1 gave a melting point of 82 to 92 °C. Molecule COc1cc(NNc2nccc(Nc3ccc(N(C)C)cc3)n2)cc(OC)c1OC has a melting point of 212 °C. For Oc1ccc(N=Nc2cccc(Cl)c2Cl)c(Cl)c1Cl, the melting point was 197 to 199 °C. For ClCc1cnc(SCc2ccccc2)s1, the melting point was 57 to 61 °C. Work on CC1(C)OC(=O)C(Oc2cc(F)cc(F)c2)=C1c1ccc(S(C)(=O)=O)cc1 yielded a melting point of 159 to 161 °C. For COc1ccc(Cn2c(NC3CCN(CCNc4ncccn4)CC3)nc3ccccc32)cc1, the melting point was 160 °C. Molecule OC1CCCN(CC(O)COc2ccc(-c3ccc(F)cc3)cc2)C1 (centres undefined) has a melting point of 100 to 102 °C. With NC(=O)N1c2ccccc2C(Cl)=C(Cl)c2ccccc21 the melting point was 265 to 270 °C. Work on CCOC(=O)c1ccccc1S(=O)(=O)NC(=O)Nc1nc(Cl)cc(OC(F)(F)F)n1 yielded a melting point of 148 to 151 °C. With Cc1nc(Nc2ccccc2)sc1-c1nc2ccccc2c(=O)n1-c1ccccc1 the melting point was 260 to 262 °C. For O=C(O)c1cc(Br)cc(C(=O)C=Cc2ccccc2)c1O, the melting point was greater than 250 °C. For CNc1ncnc2c1nnn2Cc1ccccc1F, the melting point was 180 to 182 °C. For COc1ccc2c(c1)c(OC(C)C)c(C(=O)O)n2-c1ccccc1, the melting point was 110 °C. In the case of Fc1cc(F)c(-c2c(Cl)nc3c(Cl)cnn3c2Cl)c(F)c1, the melting point is reported as 128 °C. Molecule O=CNNc1cccc(NC(=S)Nc2ccccc2)c1 has a melting point of 143 to 145 °C.
